Results on 29 compounds are retold here after patent US8455525B2, “Selective androgen receptor modulators” (Radius Health, Inc., priority 2008, dated 2013).

Molecules are shown by their SMILES. Where a name gives a salt, the structure may show the parent alone.

As a reminder, the IC50 is the concentration that inhibits the measured activity by half.

In one assay the target is T1, androgen receptor (AR) (Rattus norvegicus, UniProt P15207).
T1 construct: purchased Invitrogen, Madison, Wis
T1 sequence (P15207 651-902 limits assumed): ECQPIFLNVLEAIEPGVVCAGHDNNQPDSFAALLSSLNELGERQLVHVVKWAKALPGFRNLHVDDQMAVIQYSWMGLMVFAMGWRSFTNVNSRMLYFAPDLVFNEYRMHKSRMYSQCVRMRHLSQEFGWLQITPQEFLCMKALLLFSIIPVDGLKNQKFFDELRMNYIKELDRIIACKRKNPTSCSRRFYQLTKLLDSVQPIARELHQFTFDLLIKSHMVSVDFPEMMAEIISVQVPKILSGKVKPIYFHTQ
Briefly: androgen receptor binding assay (fluorescence polarization, Fluormone AL Green competition).
Settings: not given
Here is the method:
The assay was performed as specified by the manufacturer (Invitrogen, Madison, Wis.). Briefly, 1 μl of 10 mM compound was added to 500 μl of AR screening buffer in a 1.5 ml eppendorf tube to make a 2×10^−5M stock. 10-fold serial dilutions of the test compounds were prepared ranging in concentration from 10^−5M to 10^−12M. Each dilution was added in triplicate to a black 384-microtiter plate. The test compounds will be diluted 2-fold in the final reaction. 2×AR-Fluormone™ complex was prepared with 2 nM Flourmone AL Green™ and 30 nM AR. 25 μl of 2× complex was aliquoted to each reaction well, such that the final reaction volume was 50 μl per well. Plate was sealed with a foil cover and incubated in the dark at room temperature for 4 h. Polarization values for each well were measured. The polarization values were plotted against the concentration of the test compound. […] As a control, a competition curve for R1881 (methyltrienolone) was performed for each assay. Curve Fitting was performed using GraphPad Prism® software from GraphPad™ Software Inc. Binding data are reported as a single determination if the experiment was run once only and as the average of experiments if the binding experiment was performed two or more times with that compound.
Where multiple data points have been taken, the value reported is the average of the multiple determinations.
The compound `C[C@H](O)[C@@H](Nc1ccc(C#N)c(C(F)(F)F)c1)c1nnc(-c2ccc(C#N)cc2)o1` [Example 45, 4-((1R,2S)-1-(5-(4-Cyanophenyl)-1,3,4-oxadiazol-2-yl)-2-hydroxypropylamino)-2-(trifluoromethyl)benzonitrile] yielded a half-maximal inhibitory concentration (IC50) of 470 nM.
Compound `C[C@@H](O)[C@@H](Nc1ccc(C#N)c(Cl)c1)c1nnc(-c2ccc(C#N)cc2)o1` [Example 46, 2-Chloro-4-((1R,2R)-1-(5-(4-cyanophenyl)-1,3,4-oxadiazol-2-yl)-2-hydroxypropylamino)-benzonitrile] registered an IC50 of 6 nM.
`CCc1c(N[C@@H](c2nnc(-c3ccc(C#N)cc3)o2)[C@H](C)O)ccc(C#N)c1Cl` [Example 47, 2-Chloro-4-((1R,2S)-1-(5-(4-cyanophenyl)-1,3,4-oxadiazol-2-yl)-2-hydroxypropylamino)-3-ethylbenzonitrile] displayed a concentration for half-maximal inhibition (IC50) of 1 nM.
Regarding `C[C@H](O)[C@@H](Nc1ccc(C#N)c(Cl)c1)c1nnc(-c2ccc(S(C)(=O)=O)cc2)o1` [Example 48, 2-Chloro-4-((1R,2S)-2-hydroxy-1-(5-(4-(methylsulfonyl)phenyl)-1,3,4-oxadiazol-2-yl)propylamino)benzonitrile], the half-maximal inhibitory concentration (IC50) was greater than 1000 nM.
`Cc1c(N[C@@H](c2nnc(-c3ccc(CO)cc3)o2)[C@H](C)O)ccc(C#N)c1Cl` [Example 49, 2-Chloro-4-((1R,2S)-2-hydroxy-1-(5-(4-(hydroxymethyl)phenyl)-1,3,4-oxadiazol-2-yl)propylamino)-3-methylbenzonitrile] had an IC50 of 2 nM.
`C[C@H](O)[C@@H](Nc1ccc(C#N)c(Cl)c1)c1nnc(-c2ccc(C#N)cc2)o1` [Example 50, 2-Chloro-4-((1R,2S)-1-(5-(4-cyanophenyl)-1,3,4-oxadiazol-2-yl)-2-hydroxypropylamino)benzonitrile] displayed an IC50 of 5 nM.
With `C[C@@H](O)[C@@H](Nc1ccc(C#N)c2ccccc12)c1nnc(-c2ccccc2)o1` [Example 52, 4-((1R,2R)-2-Hydroxy-1-(5-phenyl-1,3,4-oxadiazol-2-yl)propylamino)-1-naphthonitrile], the IC50 came out at 9 nM.
Compound `Cc1c(N[C@@H](c2nnc(-c3ccc(-n4cccn4)cc3)o2)[C@H](C)O)ccc(C#N)c1Cl` [Example 53, 4-((1R,2S)-1-(5-(4-(1H-Pyrazol-1-yl)phenyl)-1,3,4-oxadiazol-2-yl)-2-hydroxypropylamino)-2-chloro-3-methylbenzonitrile] showed an IC50 of 1 nM.
Consider `CCc1c(N[C@@H](c2nnc(-c3ccc(C#N)cc3)o2)[C@@H](C)O)ccc(C#N)c1Cl` [Example 54, 2-Chloro-4-((1R,2R)-1-(5-(4-cyanophenyl)-1,3,4-oxadiazol-2-yl)-2-hydroxypropylamino)-3-ethylbenzonitrile], for which the concentration for half-maximal inhibition (IC50) turned out to be 1 nM.
For `Cc1c(N[C@@H](c2nnc(-c3ccc(Cl)c(Cl)c3)o2)[C@H](C)O)ccc(C#N)c1Cl` [Example 55, 2-Chloro-4-((1R,2S)-1-(5-(3,4-dichlorophenyl)-1,3,4-oxadiazol-2-yl)-2-hydroxypropylamino)-3-methylbenzonitrile], the IC50 came to 11 nM.
`Cc1c(N[C@@H](c2nnc(-c3ccc(Br)cc3)o2)[C@H](C)O)ccc(C#N)c1Cl` [Example 56, 4-((1R,2S)-1-(5-(4-Bromophenyl)-1,3,4-oxadiazol-2-yl)-2-hydroxypropylamino)-2-chloro-3-methylbenzonitrile] showed a concentration for half-maximal inhibition (IC50) of 10 nM.
The same measure, in the same setting: to `Cc1c(N[C@@H](c2nnc(-c3ccc(I)cc3)o2)[C@H](C)O)ccc(C#N)c1Cl` [Example 57, 2-Chloro-4-((1R,2S)-2-hydroxy-1-(5-(4-iodophenyl)-1,3,4-oxadiazol-2-yl)propylamino)-3-methylbenzonitrile] belongs 11 nM.
`Cc1c(N[C@H](CO)c2nnc(-c3ccc(C#N)cc3)o2)ccc(C#N)c1Cl` [Example 58, (R)-2-Chloro-4-(1-(5-(4-cyanophenyl)-1,3,4-oxadiazol-2-yl)-2-hydroxyethylamino)-3-methylbenzonitrile] came in with an IC50 of 10 nM.
Compound `C[C@@H](O)[C@@H](Nc1ccc(C#N)c(C(F)(F)F)c1)c1nnc(-c2ccc(S(C)(=O)=O)cc2)o1` [Example 59, 4-((1R,2R)-2-hydroxy-1-(5-(4-(methylsulfonyl)phenyl)-1,3,4-oxadiazol-2-yl)propylamino)-2-(trifluoromethyl)benzonitrile] returned an IC50 greater than 1000 nM.
In the case of `C[C@H](O)[C@@H](Nc1ccc(C#N)c2sccc12)c1nnc(-c2ccc(F)cc2)o1` [Example 62, 4-((1R,2S)-1-(5-(4-fluorophenyl)-1,3,4-oxadiazol-2-yl)-2-hydroxypropylamino)benzo[b]thiophene-7-carbonitrile], the IC50 came to 15 nM.
For the compound `C[C@H](O)[C@@H](Nc1ccc(C#N)c2sccc12)c1nnc(-c2ccccc2)o1` [Example 63, 4-((1R,2S)-2-hydroxy-1-(5-phenyl-1,3,4-oxadiazol-2-yl)propylamino)benzo[b]thiophene-7-carbonitrile], the 50% inhibitory concentration (IC50) stood at 1 nM.
`C[C@@H](O)[C@@H](Nc1ccc(C#N)c2sccc12)c1nnc(-c2ccc(F)cc2)o1` [Example 64, 4-((1R,2R)-1-(5-(4-fluorophenyl)-1,3,4-oxadiazol-2-yl)-2-hydroxypropylamino)benzo[b]thiophene-7-carbonitrile]: the IC50 came out at 1 nM.
The compound `C[C@@H](O)[C@@H](Nc1ccc(C#N)c2sccc12)c1nnc(-c2ccccc2)o1` [Example 65, 4-((1R,2R)-2-hydroxy-1-(5-phenyl-1,3,4-oxadiazol-2-yl)propylamino)benzo[b]thiophene-7-carbonitrile] displayed a half-inhibitory concentration (IC50) of 1 nM.
Compound `Cc1c(N[C@@H](c2nnc(-c3ccc(C(F)(F)F)cc3)o2)[C@H](C)O)ccc(C#N)c1Cl` [Example 68, 2-chloro-4-((1R,2S)-2-hydroxy-1-(5-(4-(trifluoromethyl)phenyl)-1,3,4-oxadiazol-2-yl)propylamino)-3-methylbenzonitrile] showed an IC50 of 12 nM.
Still for that read-out and setting: to `Cc1c(N[C@@H](c2nnc(-c3ccc(NC(=O)c4ccccc4)cc3)o2)[C@@H](C)O)ccc(C#N)c1Cl` [Example 69, N-(4-(5-((1R,2R)-1-(3-Chloro-4-cyano-2-methylphenylamino)-2-hydroxypropyl)-1,3,4-oxadiazol-2-yl)phenyl)benzamide] belongs greater than 1000 nM; to `CC(=O)Nc1ccc(-c2nnc([C@H](Nc3ccc(C#N)c(Cl)c3C)[C@@H](C)O)o2)cc1` [Example 70, N-(4-(5-((1R,2R)-1-(3-Chloro-4-cyano-2-methylphenylamino)-2-hydroxypropyl)-1,3,4-oxadiazol-2-yl)phenyl)acetamide], 4 nM.
Same read-out and setting: to `CCCC(=O)Nc1ccc(-c2nnc([C@H](Nc3ccc(C#N)c(Cl)c3C)[C@@H](C)O)o2)cc1` [Example 71, N-(4-(5-((1R,2R)-1-(3-Chloro-4-cyano-2-methylphenylamino)-2-hydroxypropyl)-1,3,4-oxadiazol-2-yl)phenyl)butyramide] belongs 280 nM; to `Cc1c(N[C@@H](c2nnc(-c3ccc(OS(=O)(=O)O)cc3)o2)[C@H](C)O)ccc(C#N)c1Cl` [Example 72, Sodium 4-(5-((1R,2S)-1-(3-chloro-4-cyano-2-methylphenylamino)-2-hydroxypropyl)-1,3,4-oxadiazol-2-yl)phenyl sulfate], 780 nM; to `CC(=O)Nc1ccc(-c2nnc([C@H](Nc3ccc(C#N)c(Cl)c3C)[C@H](C)O)o2)cc1` [Example 78, N-(4-(5-((1R,2S)-1-(3-Chloro-4-cyano-2-methylphenylamino)-2-hydroxypropyl)-1,3,4-oxadiazol-2-yl)phenyl)acetamide], 1 nM.
Compound `Cc1c(N[C@H](CCO)c2nnc(-c3ccc(C#N)cc3)o2)ccc(C#N)c1Cl` [Example 79, (R)-2-chloro-4-(1-(5-(4-cyanophenyl)-1,3,4-oxadiazol-2-yl)-3-hydroxypropylamino)-3-methylbenzonitrile] returned a 50% inhibitory concentration (IC50) of 2 nM.
As to `C=Cc1c(N[C@@H](c2nnc(-c3ccc(C#N)cc3)o2)[C@H](C)O)ccc(C#N)c1Cl` [Example 80, 2-chloro-4-((1R,2S)-1-(5-(4-cyanophenyl)-1,3,4-oxadiazol-2-yl)-2-hydroxypropylamino)-3-vinylbenzonitrile], the IC50 stood at 1 nM.

Staying with this assay, now noted: single determination or average of multiple determinations; read-out: Binding IC50 (AR-Binding Affinity).
`C[C@@H](O)[C@@H](Nc1ccc(C#N)c2ccccc12)c1nnc(-c2ccc(C#N)cc2)o1` [Example 51, 4-((1R,2R)-1-(5-(4-Cyanophenyl)-1,3,4-oxadiazol-2-yl)-2-hydroxypropylamino)-1-naphthonitrile]: the IC50 was determined as 600 nM.
On the same count and under the same terms, to `C[C@H](O)[C@@H](Nc1ccc(C#N)c2sccc12)c1nnc(-c2ccc(C#N)cc2)o1` [Example 60, 4-((1R,2S)-1-(5-(4-cyanophenyl)-1,3,4-oxadiazol-2-yl)-2-hydroxypropylamino)benzo[b]thiophene-7-carbonitrile] belongs 8 nM.
Turning to `C[C@@H](O)[C@@H](Nc1ccc(C#N)c2sccc12)c1nnc(-c2ccc(C#N)cc2)o1` [Example 61, 4-((1R,2R)-1-(5-(4-cyanophenyl)-1,3,4-oxadiazol-2-yl)-2-hydroxypropylamino)benzo[b]thiophene-7-carbonitrile], the concentration for half-maximal inhibition (IC50) amounted to 1 nM.
